{
  "source": "patent US20220401407A1",
  "about": "“REGULATION OF THE SLEEP/WAKE CYCLE USING C[…]” (Demetrix, Inc., priority 2021, published 2022)",
  "assay_type_in_all_cases": "cell-based",
  "key": {"[1]": {"molecular_target": "dopamine receptor DRD5 (Homo sapiens, UniProt P21918)", "sequence (P21918 whole entry)": "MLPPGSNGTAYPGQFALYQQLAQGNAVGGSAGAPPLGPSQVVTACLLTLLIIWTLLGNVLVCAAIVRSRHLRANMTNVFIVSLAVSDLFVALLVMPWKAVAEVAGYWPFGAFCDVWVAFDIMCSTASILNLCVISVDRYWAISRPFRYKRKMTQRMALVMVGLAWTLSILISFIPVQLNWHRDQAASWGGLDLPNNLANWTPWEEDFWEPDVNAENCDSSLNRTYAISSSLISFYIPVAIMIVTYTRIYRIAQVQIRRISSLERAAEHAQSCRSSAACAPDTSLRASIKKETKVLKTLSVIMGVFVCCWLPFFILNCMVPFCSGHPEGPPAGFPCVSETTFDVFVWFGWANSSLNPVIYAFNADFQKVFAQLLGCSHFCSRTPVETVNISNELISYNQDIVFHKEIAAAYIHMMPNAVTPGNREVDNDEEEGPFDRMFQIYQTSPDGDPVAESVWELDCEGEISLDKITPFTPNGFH", "assay": "PathHunter β-Arrestin GPCR agonist assay, DRD5", "design": "DRD5 (Agonist) percent activity: concentration or dose not given beside the values", "settings": "for DRD5 (Agonist) percent activity: agonist mode, dopamine as control", "excerpt": "(§1) To perform the GPCR reactivity assay, a commercial GPCR assay, PathHunter® β-Arrestin from Eurofins DiscoverX Products (Fremont, Calif.), was used. […] At activation of the GPCR receptor and recruitment of β-arrestin, complementation of the peptide fragments occurs and restores β-galactosidase activity. The amount of β-galactosidase activity is then measurable using chemiluminescent reagents.\n(§2) A total of four assays were run. Agonist assays were run for each of HCRTR1 and HCRTR2 and antagonist assays were run for HCRTR1 and HCRTR2. In each of the two agonist assays, PathHunter® cell lines were removed from a freezer stock and seeded at a volume of 20 μL into white walled, 384-well microplates and incubated at 37° C. Each cell was incubated with a sample to induce a response and then diluted to generate a 5× sample in assay buffer. 5 μL of the 5× sample was then added to cells and incubated at 37° C. for 90 or 180 minutes. The final assay concentration was 1%. The assay signal was generated through addition of 12.5 μL or 15 μL (50% V/V) of a detection reagent cocktail followed by a one hour incubation time at room temperature. Microplates were read following signal generation with a PerkinElmer Envision™ (PerkinElmer Inc., Waltham, Mass.) for chemiluminescent signal detection. Reactivity was analyzed using the CBIS data analysis suite (ChemInnovation, CA) where RLU refers to the raw measured values. The percent activity was then calculated using the formula: % Activity=100%*(mean RLU of test sample−mean RLU of control)/(mean max control ligand−mean RLU of vehicle control).\nTable 2 depicts the results of evaluating the cannabinoid compounds to act as an agonist for the dopamine receptor DRD5. The same experimental procedure as used for HCRTR1 and HCRTR2 agonist testing (Table 1) was followed with the substitution of dopamine as the control for the DRD5 receptor."}, "[2]": {"molecular_target": "T1, HCRTR2 (Homo sapiens, UniProt O43614)", "T1 sequence (O43614 1-444)": "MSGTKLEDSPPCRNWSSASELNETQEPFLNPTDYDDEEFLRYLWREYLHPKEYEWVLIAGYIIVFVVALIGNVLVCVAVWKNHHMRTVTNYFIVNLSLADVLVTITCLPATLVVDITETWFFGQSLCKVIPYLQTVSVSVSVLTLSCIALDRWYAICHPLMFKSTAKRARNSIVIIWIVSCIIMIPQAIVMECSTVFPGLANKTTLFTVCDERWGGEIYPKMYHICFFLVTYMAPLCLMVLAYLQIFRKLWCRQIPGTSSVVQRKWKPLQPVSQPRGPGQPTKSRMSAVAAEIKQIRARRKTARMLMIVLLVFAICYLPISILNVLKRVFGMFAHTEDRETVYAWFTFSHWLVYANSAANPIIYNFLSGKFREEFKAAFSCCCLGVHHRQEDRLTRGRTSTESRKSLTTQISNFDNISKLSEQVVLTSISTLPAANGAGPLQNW", "assay": "PathHunter β-Arrestin GPCR antagonist assay, HCRTR2", "settings": "for HCRTR2 (Antagonist) percent inhibition: antagonist mode, agonist challenge at EC80", "method": "(§3) To evaluate the role specific cannabinoid compounds may play on the sleep/wake cycle, a GPCR reactivity assay was performed to determine the reactivity of 19 cannabinoid compounds to the orexin receivers HCRTR1 and HCRTR2. The evaluated cannabinoid compounds were: CBN, THCV, CBDVA, CBG, CBL, CBC, CBDV, CBDA, CBD, CBGA, (+)-CBD, CBG-C4, CBD-C1, CBD-C2, CBGV, CBGA-C4, CBGVA, CBCA, and CBLA. Orexin A was used as the control for HCRTR1 and HCRTR2.\nas §1\n(§4) In each of the two antagonist assays, PathHunter® cell lines were removed from a freezer stock and seeded at a volume of 20 μL into white walled, 384-well microplates and incubated at 37° C. Each cell was pre-incubated with an antagonist followed by an agonist challenge at the EC80 concentration. Cells were then diluted to generate a 5× sample in assay buffer. 5 μL of the 5× sample was then added to cells and incubated at 37° C. for 30 minutes. Finally, 5 μL of 6×EC80 agonist in assay buffer were added to the cells and incubated at 37° C. for 90 minutes or 180 minutes. The assay signal was generated through addition of 12.5 μL or 15 μL (50% V/V) of a detection reagent cocktail followed by a one hour incubation time at room temperature. Microplates were read following signal generation with a PerkinElmer Envision™ (PerkinElmer Inc., Waltham, Mass.) for chemiluminescent signal detection. Reactivity was analyzed using the CBIS data analysis suite (ChemInnovation, CA) where RLU refers to the raw measured values. The percent inhibition was calculated using the formula: % Inhibition=100%*(1−mean RLU of test sample−mean RLU of control)/(mean RLU of EC80 control−mean RLU of vehicle control).\n(§5) For agonist activity, the percent activity is depicted while for antagonist activity, the percent inhibition is depicted."}, "[3]": {"molecular_target": "T1, HCRTR2", "assay": "PathHunter β-Arrestin GPCR agonist assay, HCRTR2", "design": "concentration or dose not given beside the values", "settings": "agonist mode; Orexin A as control", "method": "as §3, §1, §2, §5"}, "[4]": {"molecular_target": "T2, HCRTR1 (Homo sapiens, UniProt O43613)", "T2 sequence (O43613 1-425)": "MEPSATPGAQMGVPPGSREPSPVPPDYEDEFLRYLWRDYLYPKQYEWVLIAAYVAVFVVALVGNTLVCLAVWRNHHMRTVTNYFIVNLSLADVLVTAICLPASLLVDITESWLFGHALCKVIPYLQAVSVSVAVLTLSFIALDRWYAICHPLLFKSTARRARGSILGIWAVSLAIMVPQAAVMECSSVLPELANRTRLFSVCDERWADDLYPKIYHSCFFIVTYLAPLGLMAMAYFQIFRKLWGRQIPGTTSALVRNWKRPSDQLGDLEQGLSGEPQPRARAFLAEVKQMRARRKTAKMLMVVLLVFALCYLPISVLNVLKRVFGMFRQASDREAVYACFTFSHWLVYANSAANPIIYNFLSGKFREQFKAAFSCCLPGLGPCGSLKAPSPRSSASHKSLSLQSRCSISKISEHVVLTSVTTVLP", "assay": "PathHunter β-Arrestin GPCR agonist assay, HCRTR1", "design": "concentration or dose not given beside the values", "settings": "agonist mode; Orexin A as control", "method": "as §3, §1, §2, §5"}, "[5]": {"molecular_target": "T2, HCRTR1", "assay": "PathHunter β-Arrestin GPCR antagonist assay, HCRTR1", "settings": "for HCRTR1 (Antagonist) percent inhibition: antagonist mode, agonist challenge at EC80", "method": "as §3, §1, §4, §5"}},
  "note": "Entries after “also recorded” stand apart in the source; their conditions may differ.",
  "data": [
    {"compound": "C=C(C)[C@@H]1CCC(C)=C[C@H]1c1c(O)cc(CC)cc1O", "note": "[CBD-C2, cannabidol-C2]", "values": [
      {"measurement": "DRD5 (Agonist) percent activity", "setting": "[1]", "result": 1, "unit": "%"},
      {"measurement": "antagonist effect on HCRTR2 (in words)", "setting": "[2]", "result": "do not demonstrate meaningful activity"},
      {"measurement": "HCRTR2 (Antagonist) percent inhibition", "setting": "[2]", "result": 13, "unit": "%"},
      {"measurement": "HCRTR2 (Agonist) percent activity", "setting": "[3]", "result": 1, "unit": "%"},
      {"measurement": "HCRTR1 (Agonist) percent activity", "setting": "[4]", "result": 2, "unit": "%"},
      {"measurement": "antagonist effect on HCRTR1 (in words)", "setting": "[5]", "result": "do not demonstrate meaningful activity"},
      {"measurement": "HCRTR1 (Antagonist) percent inhibition", "setting": "[5]", "result": 20, "unit": "%"}
    ]},
    {"compound": "C=C(C)[C@@H]1CCC(C)=C[C@H]1c1c(O)cc(CCC)c(C(=O)O)c1O", "note": "[CBDVA, cannabidivarinic acid]", "values": [
      {"measurement": "DRD5 (Agonist) percent activity", "setting": "[1]", "result": 4, "unit": "%"},
      {"measurement": "antagonist effect on HCRTR2 (in words)", "setting": "[2]", "result": "do not demonstrate meaningful activity"},
      {"measurement": "HCRTR2 (Antagonist) percent inhibition", "setting": "[2]", "result": 10, "unit": "%"},
      {"measurement": "HCRTR2 (Agonist) percent activity", "setting": "[3]", "result": 0, "unit": "%"},
      {"measurement": "HCRTR1 (Agonist) percent activity", "setting": "[4]", "result": 0, "unit": "%"},
      {"measurement": "antagonist effect on HCRTR1 (in words)", "setting": "[5]", "result": "do not demonstrate meaningful activity"},
      {"measurement": "HCRTR1 (Antagonist) percent inhibition", "setting": "[5]", "result": 7, "unit": "%"}
    ]},
    {"compound": "CCCc1cc(O)c2c(c1)OC(C)(C)[C@@H]1CCC(C)=C[C@@H]21", "note": "[THCV, tetrahydrocannabivarin]", "values": [
      {"measurement": "DRD5 agonist effect (in words)", "setting": "[1]", "result": "DRD5 agonists; also recorded: stronger agonist effects"},
      {"measurement": "DRD5 (Agonist) percent activity", "setting": "[1]", "result": 52, "unit": "%"},
      {"measurement": "antagonist effect on HCRTR2 (in words)", "setting": "[2]", "result": "antagonist effect; also recorded: acted as an antagonist"},
      {"measurement": "HCRTR2 (Antagonist) percent inhibition", "setting": "[2]", "result": 89, "unit": "%"},
      {"measurement": "HCRTR2 (Agonist) percent activity", "setting": "[3]", "result": 6, "unit": "%"},
      {"measurement": "HCRTR1 (Agonist) percent activity", "setting": "[4]", "result": 2, "unit": "%"},
      {"measurement": "antagonist effect on HCRTR1 (in words)", "setting": "[5]", "result": "antagonist effect; also recorded: acted as an antagonist"},
      {"measurement": "HCRTR1 (Antagonist) percent inhibition", "setting": "[5]", "result": 89, "unit": "%"}
    ]},
    {"compound": "CCCCCc1cc2c(c(O)c1C(=O)O)C=CC(C)(CCC=C(C)C)O2", "note": "(stereo not shown) [CBCA, cannabichromenic acid]", "values": [
      {"measurement": "DRD5 (Agonist) percent activity", "setting": "[1]", "result": 1, "unit": "%"},
      {"measurement": "antagonist effect on HCRTR2 (in words)", "setting": "[2]", "result": "do not demonstrate meaningful activity"},
      {"measurement": "HCRTR2 (Antagonist) percent inhibition", "setting": "[2]", "result": 17, "unit": "%"},
      {"measurement": "HCRTR2 (Agonist) percent activity", "setting": "[3]", "result": 1, "unit": "%"},
      {"measurement": "HCRTR1 (Agonist) percent activity", "setting": "[4]", "result": 3, "unit": "%"},
      {"measurement": "antagonist effect on HCRTR1 (in words)", "setting": "[5]", "result": "do not demonstrate meaningful activity"},
      {"measurement": "HCRTR1 (Antagonist) percent inhibition", "setting": "[5]", "result": 12, "unit": "%"}
    ]},
    {"compound": "C=C(C)[C@@H]1CCC(C)=C[C@H]1c1c(O)cc(CCCCC)c(C(=O)O)c1O", "note": "[CBDA, cannabidiolic acid]", "values": [
      {"measurement": "DRD5 (Agonist) percent activity", "setting": "[1]", "result": 5, "unit": "%"},
      {"measurement": "antagonist effect on HCRTR2 (in words)", "setting": "[2]", "result": "do not demonstrate meaningful activity"},
      {"measurement": "HCRTR2 (Antagonist) percent inhibition", "setting": "[2]", "result": 10, "unit": "%"},
      {"measurement": "HCRTR2 (Agonist) percent activity", "setting": "[3]", "result": 0, "unit": "%"},
      {"measurement": "HCRTR1 (Agonist) percent activity", "setting": "[4]", "result": 1, "unit": "%"},
      {"measurement": "antagonist effect on HCRTR1 (in words)", "setting": "[5]", "result": "do not demonstrate meaningful activity"},
      {"measurement": "HCRTR1 (Antagonist) percent inhibition", "setting": "[5]", "result": 2, "unit": "%"}
    ]},
    {"compound": "CCCCCc1cc2c(c(O)c1C(=O)O)C1C3C(CCC3(C)O2)C1(C)C", "note": "(stereo not shown) [CBLA, cannabicyclolic acid]", "values": [
      {"measurement": "DRD5 (Agonist) percent activity", "setting": "[1]", "result": 0, "unit": "%"},
      {"measurement": "antagonist effect on HCRTR2 (in words)", "setting": "[2]", "result": "do not demonstrate meaningful activity"},
      {"measurement": "HCRTR2 (Antagonist) percent inhibition", "setting": "[2]", "result": 15, "unit": "%"},
      {"measurement": "HCRTR2 (Agonist) percent activity", "setting": "[3]", "result": 0, "unit": "%"},
      {"measurement": "HCRTR1 (Agonist) percent activity", "setting": "[4]", "result": 2, "unit": "%"},
      {"measurement": "antagonist effect on HCRTR1 (in words)", "setting": "[5]", "result": "do not demonstrate meaningful activity"},
      {"measurement": "HCRTR1 (Antagonist) percent inhibition", "setting": "[5]", "result": 7, "unit": "%"}
    ]}
  ]
}
